Laboratory results: patent US10308602B2, “Organoselenium compounds, method for producing same, and pharmaceutical uses thereof in particular as antitumor agents” (TETRAHEDRON, priority 2014, dated 2019)

Legend:
Type in all cases: cell-based
[1] = tested on: DU145 cells (prostate); assay: Cytotoxicity, WST-1 cell viability test, DU145; settings: Homo sapiens, DU-145, after 96 hours of treatment, read-out: Concentration decreasing by 50% the cell viability
Method: (§1) Eight cell lines originating from different types of cancer were used: PC3 and DU145 (prostate), HT-29 and LS-174T (colon), Hep G2 (liver), MCF-7 (breast), MIA PaCa-2 and PANC-1 (pancreas).
(§2) The cells are cultured in the specific culture medium described in Table II, at 37° C., 5% CO2, according to the operating procedures that are well known to the person skilled in the art.
(§3) After thawing and amplification of the cancer cells in the appropriate culture medium (described in 1.2.), 96-well plates are inoculated with these cells and incubated or not incubated (controls) in their respective culture medium, in the presence of the compounds to be tested at 10, 50, 100, 250 and 500 μM.
(§4) After 96 h of incubation, each 96-well plate is analyzed in order to measure the viability of the cells using a colorimetric test with WST-1.

[2] = tested on: LS174T cells (colon); assay: Cytotoxicity, WST-1 cell viability test, LS174T; settings: Homo sapiens, after 96 hours of treatment, read-out: Concentration decreasing by 50% the cell viability
Method: as §1, §2, §3, §4

[3] = tested on: HT-29 cells (colon); assay: Cytotoxicity, WST-1 cell viability test, HT-29; settings: Homo sapiens, after 96 hours of treatment, read-out: Concentration decreasing by 50% the cell viability
Method: as §1, §2, §3, §4

[4] = tested on: Hep G2 cells (liver); assay: Cytotoxicity, WST-1 cell viability test, Hep G2; settings: Homo sapiens, HepG2, after 96 hours of treatment, read-out: Concentration decreasing by 50% the cell viability
Method: as §1, §2, §3, §4

[5] = tested on: PANC-1 cells (pancreas); assay: Cytotoxicity, WST-1 cell viability test, PANC-1; settings: Homo sapiens, after 96 hours of treatment, read-out: Concentration decreasing by 50% the cell viability
Method: as §1, §2, §3, §4

[6] = tested on: MCF-7 cells (breast); assay: Cytotoxicity, WST-1 cell viability test, MCF-7; settings: Homo sapiens, MCF7, after 96 hours of treatment, read-out: Concentration decreasing by 50% the cell viability
Method: as §1, §2, §3, §4

[7] = tested on: MIA PaCa-2 cells (pancreas); assay: Cytotoxicity, WST-1 cell viability test, MIA PaCa-2; settings: Homo sapiens, after 96 hours of treatment, read-out: Concentration decreasing by 50% the cell viability
Method: as §1, §2, §3, §4

[8] = tested on: PC3 cells (prostate); assay: Cytotoxicity, WST-1 cell viability test, PC3; settings: Homo sapiens, PC-3, after 96 hours of treatment, read-out: Concentration decreasing by 50% the cell viability
Method: as §1, §2, §3, §4

| Compound | IC50 [1] | IC50 [2] | IC50 [3] | IC50 [4] | IC50 [5] | IC50 [6] | IC50 [7] | IC50 [8] |
| --- | --- | --- | --- | --- | --- | --- | --- | --- |
| CCOC(=O)C(O)C[Se]C (stereo not shown) [Compound 4, ethyl ester of 2-hydroxy-3-(methylseleno)propanoic acid] | 481 µM | 335 µM |  |  |  |  |  |  |
| CCCCCCCCCCCC(=O)OC(C[Se]C)C(=O)O (stereo not shown) [Compound 38, 2-(dodecanoyloxy)-3-(methylseleno)propanoic acid] | 169 µM | 113 µM | 166 µM | 263 µM | 253 µM | 215 µM | 308 µM | 198 µM |
| C[Se]CC(O)C(=O)O (stereo not shown) [Compound 10, 2-hydroxy-3-(methylseleno)propanoic acid] | 392 µM | 430 µM | 328 µM |  |  |  |  |  |
